Source: patent US20100310478A1, “SUBSTITUTED BENZOQUINONES AND HYDROQUINONES IN THE TREATMENT OF PERIODONTAL DISEASES” (priority 2007, published 2010)
Converted amounts (≈) assume the structure as drawn.

Assays:
[1] = system: S. mutans ATCC 25175; assay: Minimum inhibitory concentration (MIC) assay; type: cell-based, Streptococcus mutans; settings: Table 8
Description: (§1) S. mutans was cultured and maintained on Wilkins-Chalgren Anaerobe Medium (agar and broth) at pH 7.0 supplemented with 1 g/L glucose; all cultures were incubated at 37° C. for 48 hours in an atmosphere containing 5% CO2. For the formation of biofilms in biofilm disruption assays, however, S. mutans was grown in brain-heart infusion broth supplemented with 5% sucrose. This is a standard international method for quantitatively assessing the antimicrobial activity of a compound in a liquid medium. The method used a sterile 96-well microtitre plate, capable of holding about 200 μl of liquid per well. […] The culture medium was as described above. The wells were inoculated with a liquid suspension of freshly grown micro-organism and incubated under the conditions described above. After incubation, the microtitre plate was examined visually (with the aid of a light box) for cloudiness in each well, which would indicate microbial growth. The MIC value was recorded as the lowest concentration of test compound required to inhibit microbial growth, ie the lowest concentration for which the liquid in the well remained clear. The assays were conducted in duplicate (minimum) and included both negative (culture medium with no micro-organisms) and positive (culture medium plus diluting solvent plus micro-organism) controls.

[2] = system: S. mutans ATCC 25175; assay: Minimum bactericidal concentration (MBC) assay; type: cell-based, Streptococcus mutans; settings: Table 8
Description: S. mutans was cultured and maintained on Wilkins-Chalgren Anaerobe Medium (agar and broth) at pH 7.0 supplemented with 1 g/L glucose; all cultures were incubated at 37° C. for 48 hours in an atmosphere containing 5% CO2. For the formation of biofilms in biofilm disruption assays, however, S. mutans was grown in brain-heart infusion broth supplemented with 5% sucrose.
(§2) This assay, normally carried out after an MIC assay, determines the minimum concentration of a compound that is lethal to the micro-organism being tested.
(§3) These samples were then individually sub-cultured on antibiotic-free agar medium, under the incubation conditions described above. Following incubation they were examined visually for microbial growth.
(§4) The ratio of MIC to MBC should ideally be as close to 1 as possible.

[3] = system: P. gingivalis NCTC 11834; assay: Minimum bactericidal concentration (MBC) assay; type: cell-based, Porphyromonas gingivalis; settings: Table 7
Description: P. gingivalis strains were cultured and maintained on Wilkins-Chalgren Anaerobe Medium (agar and broth) at pH 7.0; all cultures were incubated anaerobically at 37° C. for 5-7 days.
as §2, §3, §4

[4] = system: P. gingivalis NCTC 11834; assay: Minimum inhibitory concentration (MIC) assay; type: cell-based, Porphyromonas gingivalis; settings: Table 7
Description: as §1, with “P. gingivalis strains were cultured and” for “S. mutans was cultured and”, “at pH 7.0; all cultures” for “at pH 7.0 supplemented with 1 g/L glucose; all cultures”, “were incubated anaerobically at 37°” for “were incubated at 37°”, “C. for 5-7 days. This is” for “C. for 48 hours in an atmosphere containing 5% CO2. For the formation of biofilms in biofilm disruption assays, however, S. mutans was grown in brain-heart infusion broth supplemented with 5% sucrose. This is”

Structure (SMILES) | MIC [1] [µg/mL] | MIC [4] [µg/mL] | MBC [2] [µg/mL] | MIC/MBC ratio [2] | MBC [3] [µg/mL] | MIC/MBC ratio [3]
CC(C)(C)c1cc(O)c(C(C)(C)C)cc1O [2,5-di-t-butyl-p-hydroquinone] | 250 (≈ 1120 µM) | 15.6 (≈ 70.2 µM) | > 250 | <0.5 | 15.6 (≈ 70.2 µM) | 1
CCC(C)(C)c1cc(O)c(C(C)(C)CC)cc1O [2,5-di-t-pentyl-p-hydroquinone] | 125 (≈ 499 µM) | 3.9 (≈ 15.6 µM) | 250 (≈ 998 µM) | 0.5 | 3.9 (≈ 15.6 µM) | 1

Further compounds by falling MIC [1], results first:

MIC [1] [µg/mL] | MIC [4] [µg/mL] | Structure (SMILES) | MBC [2] [µg/mL] | MIC/MBC ratio [2] | MBC [3] [µg/mL] | MIC/MBC ratio [3]
125 (≈ 856 µM) | 3.9 (≈ 26.7 µM) | Oc1ccc(O)c(F)c1F [2,3-difluoro-p-hydroquinone] | 250 (≈ 1710 µM) | 0.5 | 7.8 (≈ 53.4 µM) | 0.5
62.5 (≈ 399 µM) | 0.98 (≈ 6.26 µM) | CC1=CC(=O)C(Cl)=CC1=O [2-chloro-5-methyl-p-benzoquinone] | 125 (≈ 798 µM) | 0.5 | 1.95 (≈ 12.5 µM) | 0.5
31.2 (≈ 226 µM) | 0.98 (≈ 7.09 µM) | CCc1cc(O)ccc1O [2-ethyl-p-hydroquinone] | 125 (≈ 905 µM) | 0.25 | 1.95 (≈ 14.1 µM) | 0.5
